Values of other authors as cited in patent EP0656010B1, “Use of peptides causing a immune response for the preparation of medicaments to induce the suppression of the immune reaction” (priority 1992, dated 2001).

System: sujets infectés par les VIH-1
Details: subjects infected with HIV-1

Sequence	réponse immunitaire cellulaire dirigée contre le peptide
GGEFFYCNSTQL	réponse immunitaire cellulaire
SVEINCTRPNNNTRKSI	réponse immunitaire cellulaire
